We go through one compound from patent publication US20250249008A1, “PHARMACEUTICAL COMPOSITIONS OF ENSIFENTRINE FOR CHRONIC OBSTRUCTIVE PULMONARY DISEASE” (Verona Pharma PLC, priority 2024, published 2025).

The test system of experiment [1] is patients with moderate to severe COPD. Kind of experiment: Clinical study in COPD: moderate/severe COPD exacerbations (rate ratio, time to first exacerbation). Type of experiment: in vivo, human. An excerpt:
A COPD exacerbation may be a moderate COPD exacerbation or a severe COPD exacerbation. A moderate exacerbation is defined as worsening symptoms of COPD (as defined hereinabove) requiring a minimum of three days of treatment with oral/systemic corticosteroids and/or antibiotics. A severe exacerbation is defined as worsening symptoms of COPD (as defined hereinabove) requiring in-patient hospitalization. In some embodiments, the pharmaceutical compositions provided herein reduce the severity of COPD exacerbations in a patient, and may be used in preventing severe COPD exacerbations in a subject. In some embodiments, pharmaceutical compositions reduce the severity of COPD exacerbations. In some embodiments, […]
Ensifentrine's ability to reduce the frequency and or severity of COPD exacerbations was studied in 1,549 subjects. Ensifentrine's ability to reduce the frequency and or severity of COPD exacerbations was assessed in various subgroup populations. In one part of the study, subjects were assessed based on whether they were diagnosed with mild or moderate COPD or severe or very severe COPD. […]
These subjects were also assessed for the time to first moderate/severe COPD exacerbation, as measured by a hazard ratio from a Cox model. […]

Experiment [2] has the same test system. Description: Clinical study in COPD: dyspnea by transition dyspnea index (TDI) in subjects using LABA + ICS. Type of experiment: in vivo, human. As for the experimental part: A clinical study was conducted to determine the efficacy of ensifentrine in treating COPD compared with placebo. Ensifentrine was administered by nebulizer at a dose of 3 mg twice daily (BID) for 24 weeks. The study was a multicenter, randomized, double-blind, parallel group, placebo-controlled trial with around 800 patients and 5:3 randomization.
The study population included patients aged 40-80 years with moderate to severe COPD (FEV1 30%-70% p.n., FEV1/forced vital capacity (FVC) ratio<0.7, with mMRC≥2). The randomization stratified (a) the use of stable background maintenance LAMA or LABA therapy use (approx. 50% yes or no) and (b) cigarette smoking (current or former). Inhaled corticosteroid (ICS) maintenance therapy was permitted in up to 20% of patients under certain provisions.
Ensifentrine was studied for its ability to treat COPD in subjects using inhalable corticosteroids (ICS) while also using a LABA.

Consider `COc1cc2c(cc1OC)-c1c/c(=N\c3c(C)cc(C)cc3C)n(CCNC(N)=O)c(=O)n1CC2` [Ensifentrine, N-(2-{(2E)-9,10-dimethoxy-4-oxo-2-[(2,4,6-trimethylphenyl)imino]-6,7-dihydro-2H-pyrimido[6,1-a]isoquinolin-3(4H)-yl}ethyl)urea], for which the Reductions in exacerbations result in experiment [1] (subjects with baseline blood eosinophil concentrations of greater than 150 cells/μL) and in experiment [1] (subjects with baseline blood eosinophil concentrations of less than or equal to 150 cells/μL) was “Reductions in exacerbations were observed” throughout. Moreover, the “Transition Dyspnea Index, LS Mean” value in experiment [2] (COPD medication LABA + ICS) is given as 1.394 (0.4748). For the same compound, the “Transition Dyspnea Index, Estimate (Ensi-Pla)” value in experiment [2] (COPD medication LABA + ICS, difference ensifentrine minus placebo) is given as 0.768. Besides, the “Dyspnea compared to placebo” value in experiment [2] (subjects taking LABA and ICS) is reported as “exhibited improvements in dyspnea”.
